As a reminder, the GI50 is the concentration that inhibits growth by half.

The record followed here is ChEMBL document CHEMBL1201862, “PubChem BioAssay data set” (2004).

Among the test systems are IGROV-1; MOLT-4; HL-60; HT-29; HCC 2998; SK-OV-3; NCI-H522; M14; HCT-15; HCT-116; CCRF-CEM; Malme-3M; SW-620; SF-295; NCI-H460; UACC-62; HOP-62; SF-268; SK-MEL-5; K562.
Test in all cases: DTP human tumour cell line panel, 48 h

Structures are written as SMILES.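 In this assay, cells in 96-well plates receive the compound at five concentrations for 48 hours. Endpoints are linearly interpolated between the surrounding concentrations. GI50 is the concentration that inhibits growth by half.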 Activity calls are given as the source filed them. Rule as the data show it: active = GI50 up to about 1.1 µM and inactive = higher.

For `CCCCC(=O)c1c(O)nc2sccn2c1=O`, the GI50 in the test on IGROV-1, with MOLT-4, in the test on HL-60, in the test with HT-29, in the test on HCC 2998 and with SK-OV-3 was > 10 µM (inactive) each time. Further, the GI50 in the test with NCI-H522 is > 10 µM (inactive); in the test with M14, > 10 µM (inactive); in the test with HCT-15, above 10 µM; in the test on HCT-116, > 10 µM (inactive); in the test with CCRF-CEM it was > 10 µM (inactive); with Malme-3M, > 10 µM (inactive). Besides, the GI50 in the test with SW-620, in the test with SF-295, in the test with NCI-H460, in the test on UACC-62, in the test on HOP-62 and in the test on SF-268 was > 10 µM (inactive) each time. Further, in the test with SK-MEL-5, the GI50 was > 10 µM (inactive).
Consider `c1ccc2c(c1)SP1Sc3ccccc3P21` (stereo unspecified), for which the GI50 in the test on IGROV-1 was > 100 µM (inactive); in the test on MOLT-4, > 100 µM (inactive); in the test on HL-60, > 72.8 µM (inactive); with HT-29, 74.6 µM (inactive); with HCC 2998, 90.6 µM (inactive); with SK-OV-3, > 100 µM (inactive). Also, the GI50 was 39.6 µM (inactive) with NCI-H522; above 100 µM in the test with HCT-15; > 80 µM (inactive) with HCT-116; > 87.1 µM (inactive) in the test on CCRF-CEM; > 100 µM (inactive) with Malme-3M; > 100 µM (inactive) in the test with SW-620. The GI50 in the test on SF-295 is > 100 µM (inactive); in the test on NCI-H460, > 100 µM (inactive); in the test on UACC-62, > 85.1 µM (inactive); with HOP-62 it was > 100 µM (inactive); in the test with SF-268, > 95.3 µM (inactive); in the test with K562, > 87.3 µM (inactive). In addition, the GI50 in the test on SK-MEL-5 is > 100 µM (inactive).
With `CC1(C)OC2CC(=O)OCC23C1CC(=O)C1(C)C3CCC2(C)C(c3ccoc3)OC(=O)C3OC321` (stereo unspecified), the GI50 was > 125 µM (inactive) with IGROV-1; > 125 µM (inactive) with MOLT-4; 101 µM (inactive) in the test on HL-60; > 125 µM (inactive) with HT-29; > 125 µM (inactive) with HCC 2998; > 125 µM (inactive) in the test with SK-OV-3. Besides, the GI50 in the test with NCI-H522 was > 125 µM (inactive); in the test with HCT-15, above 125 µM; with HCT-116, > 125 µM (inactive); in the test with CCRF-CEM, > 125 µM (inactive); with Malme-3M it was 123 µM (inactive); with SW-620, > 125 µM (inactive). In addition, the GI50 with SF-295 was > 125 µM (inactive); with NCI-H460, > 125 µM (inactive); with UACC-62 it was > 125 µM (inactive); in the test with HOP-62 it was > 125 µM (inactive); with SF-268 it was > 125 µM (inactive); in the test on K562, 78.9 µM (inactive). Moreover, the GI50 in the test on SK-MEL-5 was > 125 µM (inactive).
With `COC1CCC(O)C(CO)O1` (stereo unspecified), the GI50 in the test with IGROV-1 was 22.7 µM (inactive); in the test on MOLT-4, 27.6 µM (inactive); in the test on HL-60, 31.7 µM (inactive); in the test with HT-29 it was > 100 µM (inactive); in the test with HCC 2998, > 100 µM (inactive); with SK-OV-3 it was > 100 µM (inactive). In addition, the GI50 with NCI-H522 was 13.4 µM (inactive); in the test on M14 it was 43.2 µM (inactive); in the test with HCT-15 it was above 100 µM; in the test with HCT-116, > 100 µM (inactive); with CCRF-CEM, 10.9 µM (inactive); in the test on Malme-3M, 20.5 µM (inactive). The GI50 in the test with SW-620 was 24.3 µM (inactive); with SF-295 it was > 100 µM (inactive); in the test with NCI-H460, > 100 µM (inactive); in the test with UACC-62, > 100 µM (inactive); with HOP-62 it was > 100 µM (inactive); in the test on K562 it was 11.2 µM (inactive). Moreover, in the test on SK-MEL-5, the GI50 was > 100 µM (inactive).
`[O-][n+]1c2c([n+]([O-])c3ccccc31)-c1cccc3cccc-2c13`: the GI50 in the test with MOLT-4 was > 100 µM (inactive); with HL-60, > 100 µM (inactive); in the test with HT-29, > 100 µM (inactive); in the test with HCC 2998, > 100 µM (inactive); in the test on NCI-H522, 65.9 µM (inactive); with M14 it was 48.1 µM (inactive). Further, the concentration for 50% growth inhibition (GI50) was above 100 µM in the test on HCT-15; > 100 µM (inactive) in the test with HCT-116; > 100 µM (inactive) in the test on CCRF-CEM; > 100 µM (inactive) in the test on SW-620; 34.3 µM (inactive) in the test with SF-295; 91.2 µM (inactive) in the test with NCI-H460. Also, the GI50 in the test with SF-268 is 29 µM (inactive); in the test on K562, > 100 µM (inactive); with SK-MEL-5 it was > 100 µM (inactive).
`Nc1nc(Cl)nc2c1ncn2C1CCC(CO)O1` (stereo unspecified): the GI50 with IGROV-1 was > 100 µM (inactive); in the test on MOLT-4, 35.2 µM (inactive); with HT-29, > 100 µM (inactive); with SK-OV-3, > 100 µM (inactive); in the test with M14, > 100 µM (inactive); in the test on HCT-15, above 100 µM. Further, the GI50 in the test with HCT-116 is > 100 µM (inactive); in the test on CCRF-CEM it was 3.46 µM (inactive); with Malme-3M, > 100 µM (inactive); in the test with SW-620 it was > 100 µM (inactive); in the test with SF-295, > 100 µM (inactive); in the test on NCI-H460 it was > 100 µM (inactive). In addition, the GI50 with UACC-62, in the test with HOP-62 and in the test on SK-MEL-5 was > 100 µM (inactive) throughout.
Regarding `Nc1ccc2c(c1)C(=O)N(O)C2=O`, the GI50 is > 100 µM (inactive) in the test on IGROV-1; > 100 µM (inactive) with MOLT-4; > 100 µM (inactive) in the test with HL-60; > 100 µM (inactive) with HT-29; 92 µM (inactive) in the test on HCC 2998; > 100 µM (inactive) in the test on SK-OV-3. In addition, the GI50 in the test with M14 is > 100 µM (inactive); in the test with HCT-15 it was above 100 µM; in the test on HCT-116, > 100 µM (inactive); in the test with CCRF-CEM it was > 100 µM (inactive); in the test with Malme-3M, > 100 µM (inactive); with SW-620 it was > 100 µM (inactive). The GI50 in the test on SF-295, in the test on NCI-H460, in the test on UACC-62, with HOP-62, with SF-268 and in the test with K562 was > 100 µM (inactive) throughout.
On to `COc1cc2c(cc1OC)CCN=C2`, for which the GI50 with IGROV-1, in the test with MOLT-4, in the test on HL-60, in the test with HT-29, in the test with HCC 2998 and in the test on SK-OV-3 was > 100 µM (inactive) in each case. Moreover, the GI50 with M14 is > 100 µM (inactive); in the test with HCT-15, above 100 µM; in the test on HCT-116 it was > 100 µM (inactive); with CCRF-CEM it was > 100 µM (inactive); in the test with Malme-3M, > 100 µM (inactive); in the test on SW-620, > 100 µM (inactive). The GI50 in the test on SF-295 is > 100 µM (inactive); in the test with NCI-H460 it was 66.5 µM (inactive); with UACC-62, > 100 µM (inactive); with HOP-62, > 100 µM (inactive); in the test with SK-MEL-5, > 100 µM (inactive).
`O=C(O)C12CCCC(CCC1)C2`: the GI50 in the test with IGROV-1, with MOLT-4, in the test on HL-60, in the test with HT-29, in the test on SK-OV-3 and in the test with NCI-H522 was > 100 µM (inactive) throughout. Besides, the GI50 with M14 was > 100 µM (inactive); in the test on HCT-15 it was above 100 µM; in the test with HCT-116 it was > 100 µM (inactive); with CCRF-CEM, > 100 µM (inactive); in the test on Malme-3M it was > 100 µM (inactive); with SW-620 it was > 100 µM (inactive). In addition, the GI50 with SF-295, with NCI-H460, in the test on UACC-62, with HOP-62, in the test with SF-268 and in the test on K562 was > 100 µM (inactive) each time. The GI50 in the test with SK-MEL-5 was > 100 µM (inactive).
Consider `CN(C)C(=O)OCOC(=O)N(C)C`, for which the GI50 with IGROV-1 was > 100 µM (inactive); in the test with MOLT-4, > 100 µM (inactive); in the test with HL-60, > 31.6 µM (inactive); in the test on HT-29 it was > 100 µM (inactive); in the test on HCC 2998 it was > 91.8 µM (inactive); in the test on SK-OV-3, > 100 µM (inactive). Moreover, the GI50 in the test on NCI-H522 is > 100 µM (inactive); with HCT-15, above 100 µM; with HCT-116, > 100 µM (inactive); in the test on CCRF-CEM, > 100 µM (inactive); with Malme-3M, > 100 µM (inactive); in the test on SW-620, > 100 µM (inactive). Also, the GI50 in the test on SF-295, in the test on NCI-H460, in the test with UACC-62, in the test on HOP-62, in the test with SF-268 and in the test with K562 was > 100 µM (inactive) each time. Moreover, the GI50 in the test with SK-MEL-5 is > 100 µM (inactive).
As to `CC(C)(C)[Si](C)(C)OCC1OC(n2cnc3c(N)ncnc32)CC1O` (stereo unspecified), the GI50 in the test with IGROV-1 is 76.6 µM (inactive); in the test with MOLT-4, 16.1 µM (inactive); in the test with HL-60, 20 µM (inactive); with HT-29, > 100 µM (inactive); with SK-OV-3 it was 81.5 µM (inactive); in the test with M14, 44.2 µM (inactive). Further, the GI50 with HCT-15 was 81.8 µM; in the test on HCT-116 it was > 100 µM (inactive); with CCRF-CEM it was 22.6 µM (inactive); in the test on Malme-3M, > 100 µM (inactive); in the test on SW-620, > 100 µM (inactive); in the test with SF-295, > 100 µM (inactive). In addition, the GI50 in the test on NCI-H460 is 97.5 µM (inactive); in the test with UACC-62, 36.9 µM (inactive); in the test on HOP-62, 92.7 µM (inactive); in the test with K562, 21.8 µM (inactive); in the test with SK-MEL-5, 35.6 µM (inactive).
